Measured values reported in publication PMC12751141, “Disrupting α-Synuclein–ClpP interaction restores mitochondrial function and attenuates neuropathology in Parkinson’s disease models” (Molecular Neurodegeneration, 2025).

Experiments:
ClpP–αSyn interaction = experiment: ClpP–αSyn co-immunoprecipitation in iPSC-derived neurons; type: cell-based, human; conditions: A53T-αSyn neurons; 1 µM, five days; n = 4
Excerpt: (§1) PD iPS cells lines (αSyn A53T, NN0004337, donor) and its isogenic corrected control line (NN0004344) were obtained from RUCDR Infinite Biologics. The iPS cells were differentiated into dopaminergic neuron-enriched neuronal culture with the protocol described previously. Briefly, iPS cell colonies were disassociated with accutase (Invitrogen), plated onto 6-well plates pre-coated with 2.5% Matrigel (BD Biosciences) and allowed to reach 80% confluence in mTeSR medium (Stem Cell Technology). For the first 10 days, cells were treated with SB431542 (10 µM; Tocris Bioscience) and Noggin (100 ng/ml) in Neural Media (NM) with FGF2 ([…]) and EGF ([…]). NM media contained: Neurobasal and DMEM/F12 (1:1), B-27 Supplement Minus Vitamin A (50×, Invitrogen), N2 Supplement (100X, Invitrogen), GlutaMAX (Invitrogen, 100×), 100 units/ml penicillin and 100 µg/ml streptomycin (Fisher); for the next 4 days, cells were treated with human recombinant Sonic hedgehog (SHH, 200 ng/ml) in neuronal differentiation medium. […]
Cells or tissues were lysed in total lysis buffer (50mM Tris-HCl, pH 7.5, 150mM NaCl, 1% Triton X-100, and protease inhibitor). […] The beads with immuno-precipitates were pulled down at 4000 g and washed four times with total lysis buffer/in vitro interaction buffer in the presence of 0.1% Triton X-100 and were analyzed by western blot analysis. […]

[1] = system: A53T-αSyn iPSC-derived neurons; experiment: Mitochondrial function (Mito-SOX, TMRM, ATP) in A53T-αSyn iPSC-derived neurons; type: cell-based, human
Excerpt: as §1
Cells cultured on coverslips or 24-well plates were washed with DPBS and then incubated with 5 µM Mito-SOX™ Red (Invitrogen, M36008), a mitochondrial superoxide indicator, for 10 min at 37 °C. For cells cultured on coverslips, the images were visualized by microscope, and quantification of images was then carried out using NIH ImageJ software. At least 100 cells per group were counted in the analysis.
Cells cultured on coverslips or 24-well plates were washed with DPBS and then incubated with 0.25 µM Tetramethylrhodamine, methyl ester (TMRM) (Invitrogen, T668), for 20 min at 37 °C. For cells cultured on coverslips, the images were visualized by microscope, and quantification of images was then carried out using NIH Fiji ImageJ software. At least 100 cells per group were counted in the analysis.
Cells were seeded in 24-well plates, followed by the indicated treatment. The ATP level in each well was determined using the ATP assay kit according to the manufacturer’s procedures (Cayman Chemical, 700410).

In the case of `CC(C)[C@H](NC(=O)CNC(=O)CNC(=O)CCCCCNC(=O)[C@H](CCCNC(=N)N)NC(=O)[C@H](CCCNC(=N)N)NC(=O)[C@H](CCCNC(=N)N)NC(=O)[C@H](CCC(N)=O)NC(=O)[C@H](CCCNC(=N)N)NC(=O)[C@H](CCCNC(=N)N)NC(=O)[C@H](CCCCN)NC(=O)[C@H](CCCCN)NC(=O)[C@H](CCCNC(=N)N)NC(=O)CNC(=O)[C@@H](N)Cc1ccc(O)cc1)C(=O)N[C@H](C(=O)N[C@H](C(=O)N[C@@H](C)C(=O)O)[C@@H](C)O)C(C)C` [CS2, TAT-C6-GGVVTA], the “ClpP–αSyn interaction by co-IP” value (ClpP–αSyn interaction) is reported as “markedly reduced the ClpP–αSyn interaction”, the “mitochondrial ROS, iPSC neurons” value ([1]; Mito-SOX, n = 3) is reported as “reduced mitochondrial ROS” and the “mitochondrial membrane potential, iPSC neurons” value ([1]; TMRM, n = 3) is reported as “rescued mitochondrial membrane potential”. For the same compound, the “ATP content, iPSC neurons” value ([1]; n = 6) was “rescued mitochondrial membrane potential and ATP content”.
